ChEMBL document CHEMBL5058564, “EUbOPEN Chemogenomics Library 2 (Incucyte)” (2022)

What was measured:
Format in all cases: toxicity, cell-based
[1] = tested on: HEK-293T; experiment: Incucyte cell viability with HEK293T; details: human, 10 µM, compound concentration 10 uM
[2] = tested on: Fibroblast; experiment: Incucyte cell viability with human fibroblast; details: 10 µM, compound concentration 10 uM
[3] = tested on: U2OS; experiment: Incucyte cell viability with U2OS; details: human, 10 µM, compound concentration 10 uM
[4] = 6 h, replicate number 1, timepoint 6 hours
[5] = 6 h, replicate number 2, timepoint 6 hours
[6] = 12 h, replicate number 1, timepoint 12 hours
[7] = 12 h, replicate number 2, timepoint 12 hours
[8] = 18 h, replicate number 1, timepoint 18 hours
[9] = 18 h, replicate number 2, timepoint 18 hours
[10] = 24 h, replicate number 1, timepoint 24 hours
[11] = 24 h, replicate number 2, timepoint 24 hours
[12] = 0 h, replicate number 1, timepoint 0 hours
[13] = 0 h, replicate number 2, timepoint 0 hours
Further: unitless GR value; below 1 slowed growth and below 0 cell loss.

CCC(=O)N1CC[C@H](Nc2ncnc3c2CN(c2cnc(OC)c(C(F)(F)F)c2)CC3)C1 [LENIOLISIB]
Growth Rate [1, 4]: 0.27 | Growth Rate [1, 5]: -0.14 | Growth Rate [1, 6]: 0.69 | Growth Rate [1, 7]: 0.28 | Growth Rate [1, 8]: 0.81 | Growth Rate [1, 9]: 0.66 | Growth Rate [1, 10]: 0.96 | Growth Rate [1, 11]: 0.71 | Growth Rate [2, 4]: -0.68 | Growth Rate [2, 5]: 0.91 | Growth Rate [2, 6]: 0.26 | Growth Rate [2, 8]: 0.75 | Growth Rate [2, 10]: 0.72 | Growth Rate [3, 12]: 0.57 | Growth Rate [3, 13]: 0.52 | Growth Rate [3, 4]: 0.65 | Growth Rate [3, 5]: 0.66 | Growth Rate [3, 7]: 0.58 | Growth Rate [3, 8]: 0.83 | Growth Rate [3, 9]: 0.79 | Growth Rate [3, 10]: 0.81 | Growth Rate [3, 11]: 0.79

C[C@H](CCC(=O)O)[C@H]1CC[C@H]2[C@@H]3CC[C@@H]4C[C@H](O)CC[C@]4(C)[C@H]3CC[C@]12C [LITHOCHOLIC ACID]
Growth Rate [1, 12]: 0.8 | Growth Rate [1, 13]: 0.75 | Growth Rate [1, 4]: 0.39 | Growth Rate [1, 6]: 0.56 | Growth Rate [1, 7]: 0.96 | Growth Rate [1, 8]: 0.75 | Growth Rate [1, 10]: 0.76 | Growth Rate [1, 11]: 0.86 | Growth Rate [2, 13]: 0.62 | Growth Rate [2, 4]: 0.65 | Growth Rate [2, 6]: 0.42 | Growth Rate [2, 7]: 0.98 | Growth Rate [2, 8]: 0.36 | Growth Rate [2, 9]: 0.98 | Growth Rate [2, 10]: 0.22 | Growth Rate [2, 11]: 0.78 | Growth Rate [3, 12]: 0.9 | Growth Rate [3, 13]: 0.03 | Growth Rate [3, 5]: 0.51 | Growth Rate [3, 6]: 0.79 | Growth Rate [3, 7]: 0.77 | Growth Rate [3, 8]: 0.78 | Growth Rate [3, 9]: 0.79 | Growth Rate [3, 10]: 0.96 | Growth Rate [3, 11]: 0.75

Cc1ccc(F)cc1C(=O)Nc1ccc(C(=O)N2Cc3cccn3Cc3ccccc32)c(Cl)c1 [LIXIVAPTAN]
Growth Rate [1, 12]: 0.91 | Growth Rate [2, 12]: -0.13 | Growth Rate [2, 4]: 0.63 | Growth Rate [2, 5]: 0.2 | Growth Rate [2, 7]: 0.59 | Growth Rate [2, 9]: 0.75 | Growth Rate [2, 10]: 0.45 | Growth Rate [3, 12]: -0.09 | Growth Rate [3, 4]: 0.32 | Growth Rate [3, 5]: 0.89 | Growth Rate [3, 9]: 0.89 | Growth Rate [3, 10]: 0.9 | Growth Rate [3, 11]: 0.94

CC(C)CC(=O)Nc1cncc(-c2ccc3[nH]nc(-c4nc5c(-c6cccc(F)c6)cncc5[nH]4)c3c2)c1 [LORECIVIVINT]
Growth Rate [1, 4]: -0.81 | Growth Rate [1, 5]: -0.95 | Growth Rate [1, 6]: -0.55 | Growth Rate [1, 7]: -0.81 | Growth Rate [1, 8]: -0.48 | Growth Rate [1, 9]: -0.64 | Growth Rate [1, 10]: -0.44 | Growth Rate [1, 11]: -0.57 | Growth Rate [2, 13]: 0.49 | Growth Rate [2, 4]: -0.2 | Growth Rate [2, 5]: -0.06 | Growth Rate [2, 6]: 0.36 | Growth Rate [2, 7]: -0.03 | Growth Rate [2, 8]: 0.73 | Growth Rate [2, 9]: 0.01 | Growth Rate [2, 10]: 0.43 | Growth Rate [2, 11]: -0.02 | Growth Rate [3, 12]: -0.33 | Growth Rate [3, 13]: -0.94 | Growth Rate [3, 4]: -0.82 | Growth Rate [3, 5]: -0.16 | Growth Rate [3, 6]: -0.56 | Growth Rate [3, 7]: 0.32 | Growth Rate [3, 8]: -0.16 | Growth Rate [3, 9]: 0.98 | Growth Rate [3, 10]: 0.71

CC(=O)NCCc1c(Cc2ccccc2)[nH]c2ccccc12 [LUZINDOLE]
Growth Rate [1, 5]: 0.58 | Growth Rate [1, 6]: 0.96 | Growth Rate [2, 13]: 0.86 | Growth Rate [2, 4]: 0.87 | Growth Rate [2, 6]: 0.94 | Growth Rate [3, 12]: 0.42 | Growth Rate [3, 4]: 0.72 | Growth Rate [3, 5]: 0.96 | Growth Rate [3, 7]: 0.87 | Growth Rate [3, 9]: 0.76 | Growth Rate [3, 11]: 0.88

N[C@@]1(C(=O)O)CO[C@H]2[C@H](C(=O)O)[C@H]21 [LY-379268]
Growth Rate [1, 12]: 0.68 | Growth Rate [1, 13]: 0.79 | Growth Rate [1, 5]: 0.88 | Growth Rate [2, 13]: 0.44 | Growth Rate [2, 5]: 0.16 | Growth Rate [2, 7]: 0.66 | Growth Rate [3, 12]: -0.44 | Growth Rate [3, 13]: -0.79 | Growth Rate [3, 5]: 0.99 | Growth Rate [3, 9]: 0.92

COc1ccc2[nH]cc(CCNC(C)=O)c2c1 [MELATONIN]
Growth Rate [1, 12]: 0.52 | Growth Rate [1, 13]: 0.8 | Growth Rate [1, 4]: 0.93 | Growth Rate [1, 10]: 0.94 | Growth Rate [2, 12]: 0.91 | Growth Rate [2, 13]: 0.06 | Growth Rate [3, 13]: 0.55 | Growth Rate [3, 9]: 0.85 | Growth Rate [3, 11]: 0.97

CN1C[C@@H](NS(=O)(=O)N(C)C)C[C@@H]2c3cccc4c3c(cn4C)C[C@H]21.Cl [MESULERGINE HYDROCHLORIDE]
Growth Rate [1, 12]: 0.52 | Growth Rate [1, 13]: 0.55 | Growth Rate [1, 7]: 0.91 | Growth Rate [2, 5]: -0.13 | Growth Rate [2, 7]: 0.81 | Growth Rate [3, 12]: 0.87 | Growth Rate [3, 5]: 0.84 | Growth Rate [3, 8]: 0.99 | Growth Rate [3, 11]: 0.99

C[C@]1(O)CC[C@H]2[C@@H]3CCC4=CC(=O)CCC4=C3C=C[C@@]21C [METRIBOLONE]
Growth Rate [1, 12]: 0.16 | Growth Rate [1, 13]: 0.59 | Growth Rate [1, 8]: 1 | Growth Rate [1, 10]: 0.98 | Growth Rate [2, 12]: 0.89 | Growth Rate [2, 13]: 0.22 | Growth Rate [2, 4]: 0.66 | Growth Rate [2, 5]: 0.85 | Growth Rate [2, 6]: 0.98 | Growth Rate [2, 10]: 0.98 | Growth Rate [3, 13]: 0.07 | Growth Rate [3, 4]: 0.83 | Growth Rate [3, 6]: 0.56 | Growth Rate [3, 7]: 0.92 | Growth Rate [3, 8]: 0.54 | Growth Rate [3, 9]: 0.92 | Growth Rate [3, 10]: 0.76 | Growth Rate [3, 11]: 0.86

CNC(=O)c1nn(C)c2c1C(C)(C)Cc1cnc(Nc3ccc(N4CCN(C)CC4)cc3)nc1-2 [MILCICLIB]
Growth Rate [1, 4]: -0.57 | Growth Rate [1, 5]: -0.72 | Growth Rate [1, 6]: -0.22 | Growth Rate [1, 7]: -0.34 | Growth Rate [1, 8]: -0.12 | Growth Rate [1, 9]: -0.15 | Growth Rate [1, 10]: -0.02 | Growth Rate [1, 11]: -0.01 | Growth Rate [2, 13]: 1 | Growth Rate [2, 4]: -0.13 | Growth Rate [2, 5]: -0.21 | Growth Rate [2, 6]: -0.1 | Growth Rate [2, 7]: -0.07 | Growth Rate [2, 8]: 0.24 | Growth Rate [2, 9]: 0.23 | Growth Rate [2, 10]: 0.34 | Growth Rate [2, 11]: 0.33 | Growth Rate [3, 12]: -0.33 | Growth Rate [3, 4]: 0.35 | Growth Rate [3, 5]: 0.23 | Growth Rate [3, 6]: 0.17 | Growth Rate [3, 7]: 0.29 | Growth Rate [3, 8]: 0.23 | Growth Rate [3, 9]: 0.38 | Growth Rate [3, 10]: 0.21 | Growth Rate [3, 11]: 0.25

Nc1nc(CC(=O)Nc2ccc(CCNC[C@H](O)c3ccccc3)cc2)cs1 [MIRABEGRON]
Growth Rate [1, 12]: 0.8 | Growth Rate [1, 13]: 0.62 | Growth Rate [2, 12]: 0.35 | Growth Rate [2, 13]: 0.45 | Growth Rate [2, 4]: 0.68 | Growth Rate [2, 5]: 0.56 | Growth Rate [2, 6]: 0.9 | Growth Rate [3, 12]: 0.18 | Growth Rate [3, 6]: 0.95 | Growth Rate [3, 8]: 0.54

CCS(=O)(=O)Nc1ccc(Oc2ccc(F)cc2F)c(-c2cn(C)c(=O)c3[nH]ccc23)c1 [MIVEBRESIB]
Growth Rate [1, 7]: 0.78 | Growth Rate [1, 8]: 0.75 | Growth Rate [1, 9]: 0.41 | Growth Rate [1, 10]: 0.4 | Growth Rate [1, 11]: 0.28 | Growth Rate [2, 4]: -0.16 | Growth Rate [2, 5]: 0.52 | Growth Rate [3, 13]: -0.35 | Growth Rate [3, 5]: 0.85 | Growth Rate [3, 11]: 0.95

OC[C@H]1O[C@@H](n2cnc3c(NC4CCCC4)ncnc32)[C@H](O)[C@@H]1O [N6-CYCLOPENTYLADENOSINE]
Growth Rate [1, 12]: -0.12 | Growth Rate [1, 13]: -0.14 | Growth Rate [1, 4]: 0.92 | Growth Rate [1, 5]: 0.12 | Growth Rate [1, 6]: 0.81 | Growth Rate [1, 7]: 0.6 | Growth Rate [1, 8]: 0.75 | Growth Rate [1, 9]: 0.65 | Growth Rate [1, 10]: 0.73 | Growth Rate [1, 11]: 0.66 | Growth Rate [2, 12]: 0.37 | Growth Rate [2, 13]: -0.09 | Growth Rate [2, 11]: 0.92 | Growth Rate [3, 4]: 0.36 | Growth Rate [3, 5]: 0.74 | Growth Rate [3, 6]: 0.69 | Growth Rate [3, 7]: 0.94 | Growth Rate [3, 8]: 0.53 | Growth Rate [3, 9]: 0.93 | Growth Rate [3, 10]: 0.71 | Growth Rate [3, 11]: 1

CN(C(=O)/C=C/c1ccoc1)[C@@H]1CC[C@@]2(O)[C@H]3Cc4ccc(O)c5c4[C@@]2(CCN3CC2CC2)[C@H]1O5 [NALFURAFINE]
Growth Rate [1, 12]: 0.87 | Growth Rate [1, 13]: 0.49 | Growth Rate [1, 7]: 0.91 | Growth Rate [1, 11]: 0.91 | Growth Rate [2, 13]: 0.55 | Growth Rate [3, 12]: 0.56 | Growth Rate [3, 13]: -0.09 | Growth Rate [3, 4]: 0.82 | Growth Rate [3, 7]: 1 | Growth Rate [3, 8]: 0.68 | Growth Rate [3, 9]: 0.88 | Growth Rate [3, 10]: 0.77

Cl.O=C1CC[C@@]2(O)[C@H]3Cc4ccc(O)c5c4[C@@]2(CCN3CC2CC2)[C@H]1O5 [NALTREXONE HYDROCHLORIDE]
Growth Rate [1, 13]: 0.83 | Growth Rate [1, 5]: 0.84 | Growth Rate [2, 12]: 0.67 | Growth Rate [2, 13]: 0.63 | Growth Rate [2, 4]: 0.38 | Growth Rate [2, 10]: 0.6 | Growth Rate [3, 12]: 0.86 | Growth Rate [3, 13]: -1 | Growth Rate [3, 4]: -0.02 | Growth Rate [3, 5]: 0.81 | Growth Rate [3, 6]: 0.39 | Growth Rate [3, 7]: 0.91 | Growth Rate [3, 8]: 0.67 | Growth Rate [3, 10]: 0.83
